Usually IC50 stands for the concentration needed to halve the response being measured. A high value points to weaker potency in that assay.

These results are taken from paper PMC3535377 (Amino Acids, 2011).

Experiment [1] has as its target T1, human TG6 (T021; Zedira) (Homo sapiens, UniProt O95932).
T1 sequence (O95932 1-706): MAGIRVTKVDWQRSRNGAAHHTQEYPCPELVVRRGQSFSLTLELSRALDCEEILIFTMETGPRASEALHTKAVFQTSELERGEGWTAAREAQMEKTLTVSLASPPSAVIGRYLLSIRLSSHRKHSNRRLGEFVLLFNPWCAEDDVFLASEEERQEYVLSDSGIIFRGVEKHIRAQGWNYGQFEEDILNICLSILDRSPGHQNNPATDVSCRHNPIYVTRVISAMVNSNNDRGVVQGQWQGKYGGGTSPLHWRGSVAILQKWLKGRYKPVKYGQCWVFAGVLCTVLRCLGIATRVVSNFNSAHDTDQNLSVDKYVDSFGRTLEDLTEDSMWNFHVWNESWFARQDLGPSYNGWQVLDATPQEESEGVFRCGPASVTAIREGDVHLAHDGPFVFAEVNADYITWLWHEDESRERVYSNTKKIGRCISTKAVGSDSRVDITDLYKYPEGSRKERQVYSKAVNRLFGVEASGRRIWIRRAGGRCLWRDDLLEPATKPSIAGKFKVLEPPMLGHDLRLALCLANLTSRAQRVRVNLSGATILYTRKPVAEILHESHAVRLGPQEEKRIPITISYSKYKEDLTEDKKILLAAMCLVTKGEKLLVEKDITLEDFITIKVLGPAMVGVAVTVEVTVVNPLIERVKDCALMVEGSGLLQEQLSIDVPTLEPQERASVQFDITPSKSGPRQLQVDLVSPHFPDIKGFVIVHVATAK
As to the kind of experiment: fluorescence isopeptidase. The experiment is classed as biochemical.

Experiment [2] deals with T1, human TG6 (T021; Zedira). As to the kind of experiment: fluorescence isopeptidase. In kind it is biochemical. To be noted: 37°C, Ca2+-activated; allosteric.

Consider `Nc1ncnc2c1ncn2[C@@H]1O[C@H](COP(=O)(O)OP(=O)(O)OP(=O)(O)O)[C@@H](O)[C@H]1O` [ATP], for which the IC50 in experiment [1] was around 1000 µM. In the case of `Nc1nc2c(ncn2[C@@H]2O[C@H](COP(=O)(O)OP(=O)(O)O)[C@@H](O)[C@H]2O)c(=O)[nH]1` [GDP], the half-maximal inhibition result in experiment [2] is “Activity of TG6 is inhibited to a similar degree by GTP and GDP”. On the same count and under the same terms, the value for `Nc1nc2c(ncn2[C@@H]2O[C@H](COP(=O)(O)O)[C@@H](O)[C@H]2O)c(=O)[nH]1` [GMP] was “but the affinity for GMP is low”. As for `Nc1nc2c(ncn2[C@@H]2O[C@H](COP(=O)(O)OP(=O)(O)OP(=O)(O)O)[C@@H](O)[C@H]2O)c(=O)[nH]1` [GTP], in experiment [1], 200 µM corresponded to half-maximal inhibition (IC50). In the case of `Nc1nc2c(ncn2[C@@H]2O[C@H](COP(=O)(O)OP(=O)(O)OP(O)(O)=S)[C@@H](O)[C@H]2O)c(=O)[nH]1` [GTPγS], the half-maximal inhibition entry in experiment [2] was “The non-hydrolyzable GTP analogue GTPγS is a more effective inhibitor than GTP”.
